In patent US20080319065A1, “Systemic and Intrathecal Effects of a Novel Series of Phospholipase A2 Inhibitors on Hyperalgesia and Spinal Pge2 Release” (The Regents of the University of California, priority 2005, published 2008):

Experiments:
[1] = target: T1, Group IVA cPLA2 (GIVA PLA2) (Homo sapiens, UniProt P47712); experiment: In vitro Group IVA cPLA2 mixed micelle assay; format: biochemical
T1 sequence (P47712 1-749): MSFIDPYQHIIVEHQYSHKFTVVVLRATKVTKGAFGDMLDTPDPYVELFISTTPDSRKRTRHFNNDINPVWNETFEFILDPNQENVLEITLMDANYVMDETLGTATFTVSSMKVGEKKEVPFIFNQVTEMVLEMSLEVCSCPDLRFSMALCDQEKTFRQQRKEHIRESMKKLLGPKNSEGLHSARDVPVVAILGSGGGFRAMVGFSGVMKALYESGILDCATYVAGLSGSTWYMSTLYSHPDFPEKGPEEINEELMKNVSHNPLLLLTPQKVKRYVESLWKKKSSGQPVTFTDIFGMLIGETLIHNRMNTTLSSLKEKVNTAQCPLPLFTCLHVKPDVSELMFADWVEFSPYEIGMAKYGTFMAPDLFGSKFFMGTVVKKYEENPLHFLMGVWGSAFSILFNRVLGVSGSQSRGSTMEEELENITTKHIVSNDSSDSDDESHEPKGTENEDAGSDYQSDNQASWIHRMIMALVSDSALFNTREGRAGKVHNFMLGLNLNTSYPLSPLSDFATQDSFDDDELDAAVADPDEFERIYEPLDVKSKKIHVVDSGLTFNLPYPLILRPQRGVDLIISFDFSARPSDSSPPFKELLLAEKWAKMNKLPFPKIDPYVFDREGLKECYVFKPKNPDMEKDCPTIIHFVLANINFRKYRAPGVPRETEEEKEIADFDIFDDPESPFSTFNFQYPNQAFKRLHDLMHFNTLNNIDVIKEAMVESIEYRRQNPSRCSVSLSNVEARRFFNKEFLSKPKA

[2] = target: T2, Group VIA iPLA2 (GVIA PLA2) (Homo sapiens, UniProt O60733); experiment: In vitro Group VIA iPLA2 mixed micelle assay; format: biochemical
T2 sequence (O60733 1-806): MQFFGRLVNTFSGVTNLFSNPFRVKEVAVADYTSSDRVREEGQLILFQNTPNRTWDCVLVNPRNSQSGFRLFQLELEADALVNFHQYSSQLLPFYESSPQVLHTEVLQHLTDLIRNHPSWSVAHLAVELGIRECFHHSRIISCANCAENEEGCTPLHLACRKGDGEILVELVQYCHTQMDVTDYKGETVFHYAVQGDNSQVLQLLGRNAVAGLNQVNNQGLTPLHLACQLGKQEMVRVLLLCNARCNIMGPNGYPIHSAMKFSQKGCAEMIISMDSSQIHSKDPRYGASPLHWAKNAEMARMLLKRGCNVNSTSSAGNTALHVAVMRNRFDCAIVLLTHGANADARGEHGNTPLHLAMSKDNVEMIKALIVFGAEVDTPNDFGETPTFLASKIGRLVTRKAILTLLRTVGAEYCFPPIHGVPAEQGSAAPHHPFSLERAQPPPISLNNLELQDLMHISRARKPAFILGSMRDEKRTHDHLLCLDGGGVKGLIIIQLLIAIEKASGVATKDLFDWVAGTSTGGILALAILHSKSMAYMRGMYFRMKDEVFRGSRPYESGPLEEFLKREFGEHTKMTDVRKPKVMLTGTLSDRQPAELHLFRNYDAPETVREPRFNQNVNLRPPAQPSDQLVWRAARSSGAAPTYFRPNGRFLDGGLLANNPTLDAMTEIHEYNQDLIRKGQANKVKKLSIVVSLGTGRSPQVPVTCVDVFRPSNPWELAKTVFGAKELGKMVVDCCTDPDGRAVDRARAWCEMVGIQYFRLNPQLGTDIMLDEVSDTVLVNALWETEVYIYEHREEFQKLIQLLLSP

| Compound | inhibition of GIVA PLA2 (cPLA2), in words [1] | Group IVA XI(50), class ([1]; at 0.091 mole fraction) | Inhibition of GIVA PLA2 ([1]; at highest dose) | inhibition of GVIA PLA2 (iPLA2), in words [2] | Group VIA XI(50), class ([2]; at 0.091 mole fraction) | Inhibition of GVIA PLA2 ([2]; at highest dose) | Group IVA XI(50) (mole fraction) ([1]; Table 1b) | Group VIA XI(50) (mole fraction) ([2]; Table 1b) |
| --- | --- | --- | --- | --- | --- | --- | --- | --- |
| CCC(=O)C(=O)NCCCC(=O)OC [AX010] | does not significantly inhibit GIVA PLA2 | N.D. (25% inhibition or less at 0.091 mole fraction) | ND (negligible inhibition (0-25%) at highest dose) | limited inhibition of GVIA PLA2 | L.D. (between 25% and 50% inhibition at 0.091 mole fraction) | LD (limited inhibition (25-50%) at highest dose) | – | – |
| CCCCCCCCCCCCCCC(=O)C(=O)NCCCC(=O)OCC [AX048, Ethyl 4-[(2-oxohexadecanoyl)amino]butanoate] | – | – | – | – | – | – | 0.022 ± 0.009 | 0.027 ± 0.009 |
